From ChEMBL document CHEMBL5233271, “Discovering the Mechanisms of Wikstroelide E as a Potential HIV-Latency-Reversing Agent by Transcriptome Profiling” (J Nat Prod, 2021)
Active and inactive are the calls of the source. The rule behind the calls is not given here.

Legend:
[1] = system: Human immunodeficiency virus; assay: Reactivation of latent HIV in human J-Lat Tat-GFP Clone A2 cells at 10 nM by fluorescence based analysis; type: functional, organism-based; details: time 6-36 hrs, TDE = time-dependent effect
NH2 [2] = assay: Activation of NFkappaB signalling pathway in human NH2 cells assessed as increase in translocation of p65 from cytoplasm to nucleus at 40 nM pretreated with PKC inhibitor, Go6983 for 1 hr followed by compound addition and measured after 12 hrs by Western blot analysis; type: cell-based
[3] = system: Human immunodeficiency virus; assay: Reactivation of latent HIV in human NH2 cells measured after 24 hrs by luciferase based analysis; type: functional, organism-based; details: dose 0.5-10 nM
J-Lat Tat-GFP Clone A2 [4] = assay: Upregulation of DDRGK1 gene expression in human J-Lat Tat-GFP Clone A2 cells at 10 nM measured after 6 hrs by transcriptome analysis; type: functional, cell-based
J-Lat Tat-GFP Clone A2 [5] = assay: Upregulation of DGKA gene expression in human J-Lat Tat-GFP Clone A2 cells at 10 nM measured after 6 hrs by transcriptome analysis; type: functional, cell-based
[6] = Cytotoxicity against human NH1 cells at 1 uM incubated for 72 hrs; type: toxicity, cell-based; details: nh1, 72 h
NH2 [7] = assay: Activation of NFkappaB signalling pathway in human NH2 cells assessed as increase in IkappaBalpha phosphorylation measured after 1 hr by Western blot analysis; type: cell-based; details: filed as activator, dose 0-80 nM
[8] = Cytotoxicity against human J-Lat 2D10 cells at 1 uM incubated for 72 hrs; type: toxicity, cell-based
[9] = system: Human immunodeficiency virus; assay: Reactivation of latent HIV in human J-Lat Tat-GFP Clone A2 cells measured after 24 hrs by fluorescence based analysis; type: functional, organism-based; details: dose 0.5-40 nM
[10] = system: Human immunodeficiency virus; assay: HIV-latency reversing activity in human NH2 cells at 10 nM pretreated with PDTC for 1 hr followed by compound addition and measured after 12 hrs by luciferase based assay; type: functional, organism-based
J-Lat Tat-GFP Clone A2 [11] = assay: Upregulation of CD69 gene expression in human J-Lat Tat-GFP Clone A2 cells at 10 nM measured after 6 hrs by transcriptome analysis; type: functional, cell-based
[12] = system: Human immunodeficiency virus; assay: HIV-latency reversing activity in human NH2 cells at 10 nM pretreated with BAY11-7082 for 1 hr followed by compound addition and measured after 12 hrs by luciferase based assay; type: functional, organism-based
J-Lat Tat-GFP Clone A2 [13] = assay: Downregulation of INTS10 gene expression in human J-Lat Tat-GFP Clone A2 cells at 10 nM measured after 6 hrs by transcriptome analysis; type: functional, cell-based
J-Lat Tat-GFP Clone A2 [14] = assay: Upregulation of CLIC1 gene expression in human J-Lat Tat-GFP Clone A2 cells at 10 nM measured after 6 hrs by transcriptome analysis; type: functional, cell-based
[15] = system: Human immunodeficiency virus; assay: HIV-latency reversing activity in human J-Lat Tat-GFP Clone A2 cells at 10 nM measured after 24 hrs by fluorescence based analysis; type: functional, organism-based
[16] = system: Human immunodeficiency virus; assay: HIV-latency reversing activity in human NH2 cells at 10 nM pretreated with PKC inhibitor, Go6983 for 1 hr followed by compound addition and measured after 12 hrs by luciferase based assay; type: functional, organism-based
J-Lat Tat-GFP Clone A2 [17] = assay: Downregulation of CNBP gene expression in human J-Lat Tat-GFP Clone A2 cells at 10 nM measured after 6 hrs by transcriptome analysis; type: functional, cell-based
NH2 [18] = assay: Activation of NFkappaB signalling pathway in human NH2 cells assessed as increase in IkappaBalpha phosphorylation at 40 nM by Western blot analysis; type: cell-based; details: filed as activator, time 5-120 min, TDE = time-dependent effect
[19] = system: Human immunodeficiency virus; assay: HIV-latency reversing activity in human NH2 cells at 10 nM pretreated with JAK inhibitor, -decernotinib for 1 hr followed by compound addition and measured after 12 hrs by luciferase based assay; type: functional, organism-based
J-Lat Tat-GFP Clone A2 [20] = assay: Upregulation of BZW1 gene expression in human J-Lat Tat-GFP Clone A2 cells at 10 nM measured after 6 hrs by transcriptome analysis; type: functional, cell-based
[21] = system: Human immunodeficiency virus; assay: Reactivation of latent HIV in human NH1 cells assessed as fold change measured after 24 hrs by luciferase based analysis relative to -prostratin; type: functional
J-Lat Tat-GFP Clone A2 [22] = assay: Activation of NFkappaB signalling pathway in human J-Lat Tat-GFP Clone A2 cells assessed as induction of IkappaBalpha degradation at 40 nM by Western blot analysis; type: cell-based; details: filed as activator, time 5-120 min, TDE = time-dependent effect
J-Lat Tat-GFP Clone A2 [23] = assay: Downregulation of CCNB1 gene expression in human J-Lat Tat-GFP Clone A2 cells at 10 nM measured after 6 hrs by transcriptome analysis; type: functional, cell-based
J-Lat Tat-GFP Clone A2 [24] = assay: Upregulation of CORO1A gene expression in human J-Lat Tat-GFP Clone A2 cells at 10 nM measured after 6 hrs by transcriptome analysis; type: functional, cell-based
J-Lat Tat-GFP Clone A2 [25] = assay: Downregulation of LRSAM1 gene expression in human J-Lat Tat-GFP Clone A2 cells at 10 nM measured after 6 hrs by transcriptome analysis; type: functional, cell-based
[26] = system: Human immunodeficiency virus; assay: Reactivation of latent HIV in human NH1 cells at 10 nM by luciferase based analysis; type: functional, organism-based; details: time 6-36 hrs, TDE = time-dependent effect
[27] = system: Human immunodeficiency virus; assay: Reactivation of latent HIV in human J-Lat Tat-GFP Clone A2 cells assessed as increase in GFP expression at 0 to 20 nM measured after 24 hrs by fluorescence microscopy; type: functional, organism-based; details: dose 0-20 nM
[28] = system: Human immunodeficiency virus; assay: Reactivation of latent HIV in human J-Lat Tat-GFP Clone A2 cells assessed as increase in GFP expression at 10 nM by live fluorescence imaging analysis; type: functional, organism-based; details: time 6-36 hrs, TDE = time-dependent effect
J-Lat Tat-GFP Clone A2 [29] = assay: Upregulation of FMNL1 gene expression in human J-Lat Tat-GFP Clone A2 cells at 10 nM measured after 6 hrs by transcriptome analysis; type: functional, cell-based
J-Lat Tat-GFP Clone A2 [30] = assay: Downregulation of CHEK1 gene expression in human J-Lat Tat-GFP Clone A2 cells at 10 nM measured after 6 hrs by transcriptome analysis; type: functional, cell-based
J-Lat Tat-GFP Clone A2 [31] = assay: Activation of NFkappaB signalling pathway in human J-Lat Tat-GFP Clone A2 cells assessed as increase in IkappaBalpha phosphorylation at 40 nM by Western blot analysis; type: cell-based; details: filed as activator, time 5-120 min, TDE = time-dependent effect
[32] = system: Human immunodeficiency virus; assay: Reactivation of latent HIV in human NH2 cells at 10 nM by luciferase based analysis; type: functional, organism-based; details: time 6-36 hrs, TDE = time-dependent effect
J-Lat Tat-GFP Clone A2 [33] = assay: Downregulation of IKBKG gene expression in human J-Lat Tat-GFP Clone A2 cells at 10 nM measured after 6 hrs by transcriptome analysis; type: functional, cell-based
J-Lat Tat-GFP Clone A2 [34] = assay: Activation of NFkappaB signalling pathway in human J-Lat Tat-GFP Clone A2 cells assessed as induction of IkappaBalpha degradation measured after 1 hr by Western blot analysis; type: cell-based; details: filed as activator, dose 0-80 nM
[35] = system: Human immunodeficiency virus; assay: HIV-latency reversing activity in human NH2 cells at 10 nM measured after 24 hrs by luciferase based assay; type: functional, organism-based
J-Lat Tat-GFP Clone A2 [36] = assay: Activation of NFkappaB signalling pathway in human J-Lat Tat-GFP Clone A2 cells assessed as increase in IkappaBalpha phosphorylation measured after 1 hr by Western blot analysis; type: cell-based; details: filed as activator, dose 0-80 nM
J-Lat Tat-GFP Clone A2 [37] = assay: Activation of NFkappaB signalling pathway in human J-Lat Tat-GFP Clone A2 cells assessed as increase in translocation of p65 from cytoplasm to nucleus at 40 nM measured after 15 to 60 mins by Western blot analysis; type: cell-based; details: filed as activator, time 15-60 min
NH2 [38] = assay: Activation of NFkappaB signalling pathway in human NH2 cells assessed as increase in translocation of p65 from cytoplasm to nucleus at 40 nM measured after 15 to 60 mins by Western blot analysis; type: cell-based; details: filed as activator, time 15-60 min
NH2 [39] = assay: Activation of NFkappaB signalling pathway in human NH2 cells assessed as induction of IkappaBalpha degradation at 40 nM by Western blot analysis; type: cell-based; details: filed as activator, time 5-120 min, TDE = time-dependent effect
J-Lat Tat-GFP Clone A2 [40] = assay: Downregulation of ARID4B gene expression in human J-Lat Tat-GFP Clone A2 cells at 10 nM measured after 6 hrs by transcriptome analysis; type: functional, cell-based
[41] = system: Human immunodeficiency virus; assay: Reactivation of latent HIV in human J-Lat 2D10 cells measured after 24 hrs by fluorescence based analysis; type: functional, organism-based; details: dose 0.5-40 nM
J-Lat Tat-GFP Clone A2 [42] = assay: Upregulation of SACM1L gene expression in human J-Lat Tat-GFP Clone A2 cells at 10 nM measured after 6 hrs by transcriptome analysis; type: functional, cell-based
J-Lat Tat-GFP Clone A2 [43] = assay: Downregulation of ADI1 gene expression in human J-Lat Tat-GFP Clone A2 cells at 10 nM measured after 6 hrs by transcriptome analysis; type: functional, cell-based
[44] = system: Human immunodeficiency virus; assay: Reactivation of latent HIV in human J-Lat 2D10 cells at 10 nM by fluorescence based analysis; type: functional, organism-based; details: time 6-36 hrs, TDE = time-dependent effect
J-Lat Tat-GFP Clone A2 [45] = assay: Downregulation of FLNB gene expression in human J-Lat Tat-GFP Clone A2 cells at 10 nM measured after 6 hrs by transcriptome analysis; type: functional, cell-based
[46] = Cytotoxicity against human NH2 cells at 1 uM incubated for 72 hrs; type: toxicity, cell-based; details: nh2, 72 h
NH2 [47] = assay: Activation of NFkappaB signalling pathway in human NH2 cells assessed as induction of IkappaBalpha degradation measured after 1 hr by Western blot analysis; type: cell-based; details: filed as activator, dose 0-80 nM
J-Lat Tat-GFP Clone A2 [48] = assay: Upregulation of HSP90B1 gene expression in human J-Lat Tat-GFP Clone A2 cells at 10 nM measured after 6 hrs by transcriptome analysis; type: functional, cell-based
[49] = system: Human immunodeficiency virus; assay: Reactivation of latent HIV in human NH1 cells measured after 24 hrs by luciferase based analysis; type: functional, organism-based; details: dose 0.5-10 nM
J-Lat Tat-GFP Clone A2 [50] = assay: Downregulation of PRKCQ gene expression in human J-Lat Tat-GFP Clone A2 cells at 10 nM measured after 6 hrs by transcriptome analysis; type: functional, cell-based
J-Lat Tat-GFP Clone A2 [51] = assay: Cytotoxicity against human J-Lat Tat-GFP Clone A2 cells at 1 uM incubated for 72 hrs; type: toxicity, cell-based; details: j-lat tat-gfp clone a2, 72 h
J-Lat Tat-GFP Clone A2 [52] = assay: Upregulation of CHCHD2 gene expression in human J-Lat Tat-GFP Clone A2 cells at 10 nM measured after 6 hrs by transcriptome analysis; type: functional, cell-based
[53] = system: Human immunodeficiency virus; assay: Reactivation of latent HIV in human NH2 cells assessed as fold change measured after 24 hrs by luciferase based analysis relative to -prostratin; type: functional

C=C(C)[C@]12C[C@@H](C)[C@@]34O[C@]5(CCCCCCC[C@H](C)[C@H]6[C@H](C)C(=O)[C@@](O)([C@H](O)[C@@]7(CO)O[C@H]7[C@H]3[C@H]1O5)[C@@H]64)O2
Activity [1]: Tde
Activity (NH2 [2]): inactive
Activity [3]: Dose-Dependent Effect
Activity (J-Lat Tat-GFP Clone A2 [4]): Active
Activity (J-Lat Tat-GFP Clone A2 [5]): Active
Activity [6]: Non-Toxic
Activity (NH2 [7]): Dose-Dependent Effect
Activity [8]: Non-Toxic
Activity [9]: Dose-Dependent Effect
Activity [10]: inactive
Activity (J-Lat Tat-GFP Clone A2 [11]): Active
Activity [12]: inactive
Activity (J-Lat Tat-GFP Clone A2 [13]): Active
Activity (J-Lat Tat-GFP Clone A2 [14]): Active
Activity [15]: Active
Activity [16]: inactive
Activity (J-Lat Tat-GFP Clone A2 [17]): Active
Activity (NH2 [18]): Tde
Activity [19]: inactive
Activity (J-Lat Tat-GFP Clone A2 [20]): Active
fold change (FC) [21]: 2500
Activity (J-Lat Tat-GFP Clone A2 [22]): Tde
Activity (J-Lat Tat-GFP Clone A2 [23]): Active
Activity (J-Lat Tat-GFP Clone A2 [24]): Active
Activity (J-Lat Tat-GFP Clone A2 [25]): Active
Activity [26]: Tde
Activity [27]: Active
Activity [28]: Tde
Activity (J-Lat Tat-GFP Clone A2 [29]): Active
Activity (J-Lat Tat-GFP Clone A2 [30]): Active
Activity (J-Lat Tat-GFP Clone A2 [31]): Tde
Activity [32]: Tde
Activity (J-Lat Tat-GFP Clone A2 [33]): Active
Activity (J-Lat Tat-GFP Clone A2 [34]): Dose-Dependent Effect
Activity [35]: Active
Activity (J-Lat Tat-GFP Clone A2 [36]): Dose-Dependent Effect
Activity (J-Lat Tat-GFP Clone A2 [37]): Active
Activity (NH2 [38]): Active
Activity (NH2 [39]): Tde
Activity (J-Lat Tat-GFP Clone A2 [40]): Active
Activity [41]: Dose-Dependent Effect
Activity (J-Lat Tat-GFP Clone A2 [42]): Active
Activity (J-Lat Tat-GFP Clone A2 [43]): Active
Activity [44]: Tde
Activity (J-Lat Tat-GFP Clone A2 [45]): Active
Activity [46]: Non-Toxic
Activity (NH2 [47]): Dose-Dependent Effect
Activity (J-Lat Tat-GFP Clone A2 [48]): Active
Activity [49]: Dose-Dependent Effect
Activity (J-Lat Tat-GFP Clone A2 [50]): Active
Activity (J-Lat Tat-GFP Clone A2 [51]): Non-Toxic
Activity (J-Lat Tat-GFP Clone A2 [52]): Active
fold change (FC) [53]: 2500
